The text below walks through data of patent US7476670B2, “Purine derivatives, method for preparing, pharmaceutical compositions and novel use” (Aventis Pharma S.A., priority 2003, dated 2009).

What all share (type): biochemical
For experiment [1], the target named is Cyclin Dependent kinase 2 (CDK2) (Homo sapiens, UniProt P24941). The experiment is described as follows: Assay for inhibition of CDK2 activity. Particulars: [33P]ATP, read-out: percentage inhibition at 20 μM. Here is the method:
The inhibition of the kinase activity of Cyclin Dependent kinase 2 (CDK2) is determined by measuring the phosphorylation of its substrate peptide.
(§1) The assay is carried out in a final volume of 50 μl.
The incubation buffer as follows:
• 50 mM Hepes/NaOH pH 7.5 • 10 mM MgCl2 • 1 mM DTT 5 μl of the 10-times concentrated inhibitor are added to 25 μl of incubation buffer containing 0.8 U/μL final concentration of the enzyme; 10 μL of incubation buffer containing 0.0025 mg/ml of peptide substrate are then added and, finally, 10 μL of incubation buffer containing 2 mM ATP and radiolabeled ATP, [^33P]ATP (0.25 μCi), are added. The reaction is stopped after incubation for 10 minutes at 37° C. • Results obtained expressed as percentage inhibition at 20 μM • Example 2 97% • Example 27 97% • Example 30 99% 4) Assay for Inhibition of CDK1 Activity

Another experiment has as its target GSK3beta (Homo sapiens, UniProt P49841). Nature of the experiment: Assay for inhibition of GSK3beta activity. Particulars: [33P]ATP; read-out: IC50s expressed as micromolar. The method, then:
The inhibition of the kinase activity is determined by measuring the phosphorylation of its substrate peptide.
The assay is carried out in a final volume of 40 μl; all the reagents are prepared in a buffer: • 50 mM HEPES pH 7.5 • 0.03% triton X100 • 10 mM MgCl2 • 5% Glycerol • 1 mM DTT 10 μl of the 10-times concentrated inhibitor are added to 5 μl of enzyme (20 ng final concentration), and 5 μl of peptide (1 μM final concentration) then 2.5 μof incubation buffer containing 16 μM ATP and 2.5 μl of radiolabeled ATP, [^33P]ATP (50 nCi) are added. After incubation for 15 minutes at ambient temperature, 10 μl of incubation buffer containing 1 μM of substrate.

The next experiment addresses CaCiv1 (Candida albicans, UniProt A0A1D8PH53). The experiment is described as follows: Assay for inhibition of CIV-CDK (CIV1) activity. From the text: 1) Assay for Inhibition of CIV-CDK (CIV1) Activity
a) Preparation of the Reagents

The subject of another experiment is CAN Kinase II. The experiment is described as follows: Assay for inhibition for CAN kinase II activity. The conditions noted are these: [33P]ATP, calmodulin. The method, then:
The inhibition of the kinase activity is determined by. measuring the phosphorylation of its substrate peptide.
as §1
The incubation buffer is as follows:
• 20 mM MOPS pH 7.4 • 5 mM MgCl2 • 5 mM CaCl2 • 1 mM DTT • 100 μM Na2VO4 • 25 mM Beta-glycerophosphate 5 μl of the 10-times concentrated inhibitor are added to 25 μl of incubation buffer containing 0.2 μg/μl final concentration of the enzyme (Tebu, SE-134); 10 μl of incubation buffer containing 5 μM final concentration of substrate and 1600 U/ml final concentration of calmodulin are then added and, finally, 10 μl of incubation buffer containing 20 μM ATP and radiolabeled ATP, [^33P]ATP (0.05 μCi), are added. The reaction is stopped after incubation for 40 minutes at ambient temperature. • Results obtained expressed as percentage inhibition at 20 μM • Example 30 98% 9) Assay for Inhibition of EGF tyr Kinase Activity

Another experiment deals with JNK3 kinase (Homo sapiens, UniProt P53779). The experiment is described as follows: Assay for inhibition of JNK3 activity. Particulars: fluorescence polarization, ATP 6 μM; read-out: IC50s expressed as micromolar. The method, then: The inhibition of the kinase activity is determined by fluorescence polarization, the JNK3 kinase phosphorylates a peptide detected by adding an anti-phosphopeptide antibody coupled to a fluorescent label.
The assay is carried out in a final volume of 30 μl; all the reagents are prepared in a buffer: • 50 mM HEPES pH 7.5 • 0.03% triton X100 • 10 mM MgCl2 • 5% Glycerol • 1 mM DTT 10 μl of the 10-times concentrated inhibitor are added to 5 μl of enzyme (40 ng final concentration), and 5 μl of incubation buffer containing 100 ng of substrate and 10 μl of ATP (6 μM final concentration) are added.

In a further experiment the target is T1, ZAP kinase (Homo sapiens, UniProt P43403).
T1 construct: purchased Panvera P2782
T1 sequence (P43403 1-619): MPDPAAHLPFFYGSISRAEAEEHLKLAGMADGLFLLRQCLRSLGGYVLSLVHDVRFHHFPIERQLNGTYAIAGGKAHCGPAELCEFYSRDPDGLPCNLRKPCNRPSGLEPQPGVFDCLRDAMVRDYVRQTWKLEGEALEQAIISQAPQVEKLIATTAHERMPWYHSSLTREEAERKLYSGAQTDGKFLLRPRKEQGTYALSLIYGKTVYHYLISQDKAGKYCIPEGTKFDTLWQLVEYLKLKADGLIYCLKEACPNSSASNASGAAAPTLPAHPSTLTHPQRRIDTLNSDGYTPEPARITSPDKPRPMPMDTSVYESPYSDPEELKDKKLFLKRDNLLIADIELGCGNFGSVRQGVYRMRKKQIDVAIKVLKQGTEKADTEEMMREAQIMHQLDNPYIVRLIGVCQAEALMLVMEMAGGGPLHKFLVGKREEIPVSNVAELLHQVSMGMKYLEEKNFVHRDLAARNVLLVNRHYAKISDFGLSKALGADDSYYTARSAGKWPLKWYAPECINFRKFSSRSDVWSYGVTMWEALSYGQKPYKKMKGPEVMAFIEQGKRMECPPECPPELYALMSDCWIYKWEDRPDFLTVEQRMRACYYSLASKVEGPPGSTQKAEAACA
The experiment is described as follows: Assay for inhibition of ZAP kinase activity. Particulars: fluorescence polarization, read-out: percentage inhibition at 20 μM. Here is the method: The inhibition of the kinase activity is determined by fluorescence polarization, the ZAP kinase phosphorylates a peptide detected by adding an anti-phosphopeptide antibody coupled to a fluorescent label.
The assay is carried out in a final volume of 50 μl; all the reagents are prepared in a buffer: • 20 mM Tris/HCl pH 7.7 • 7 mM MnCl2 • 50 μM Na2VO4 5 μl of the 10-times concentrated inhibitor are added to 25 μl of enzyme (0.7 μg/ml final concentration) (Panvera ref P2782). After incubation for 5 minutes at ambient temperature, 10 μl of PolyGT (300 ng/ml final concentration) and 10 μl of ATP (0.25 μM final concentration) are added. The detection is carried out after incubation for 15 minutes at ambient temperature. • Results obtained expressed as percentage inhibition at 20 μM • Example 8 98% • Example 20 95% • Example 24 96% 7) Assay for Inhibition of Casein Kinase II Activity
(In general: Fluorescence polarisation rises when a labelled molecule tumbles more slowly, as on binding a larger partner.)

Structures are written as SMILES.

CaCiv1, sequence (A0A1D8PH53 entry or part of it): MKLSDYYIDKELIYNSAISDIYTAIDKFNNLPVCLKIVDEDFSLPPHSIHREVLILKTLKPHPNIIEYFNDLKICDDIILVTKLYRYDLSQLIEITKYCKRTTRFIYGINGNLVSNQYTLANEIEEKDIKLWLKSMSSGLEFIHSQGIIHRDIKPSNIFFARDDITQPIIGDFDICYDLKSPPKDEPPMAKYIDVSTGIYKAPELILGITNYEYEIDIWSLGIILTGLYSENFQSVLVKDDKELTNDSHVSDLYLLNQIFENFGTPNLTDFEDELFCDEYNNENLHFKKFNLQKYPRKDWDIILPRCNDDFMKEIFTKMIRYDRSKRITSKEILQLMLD
GSK3beta, sequence (P49841 whole entry, species assumed): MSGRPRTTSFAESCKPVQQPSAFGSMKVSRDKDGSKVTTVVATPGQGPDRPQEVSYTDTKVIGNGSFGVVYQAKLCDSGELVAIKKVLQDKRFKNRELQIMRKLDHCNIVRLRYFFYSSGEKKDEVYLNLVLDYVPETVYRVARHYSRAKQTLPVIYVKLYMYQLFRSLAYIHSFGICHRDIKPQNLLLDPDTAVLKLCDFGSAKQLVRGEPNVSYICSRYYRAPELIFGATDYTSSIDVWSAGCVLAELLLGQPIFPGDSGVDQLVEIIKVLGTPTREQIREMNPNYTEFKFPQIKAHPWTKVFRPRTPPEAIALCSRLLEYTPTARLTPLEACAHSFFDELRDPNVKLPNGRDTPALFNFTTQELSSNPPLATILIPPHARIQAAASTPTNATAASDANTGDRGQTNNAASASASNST
JNK3 kinase, sequence (P53779 whole entry): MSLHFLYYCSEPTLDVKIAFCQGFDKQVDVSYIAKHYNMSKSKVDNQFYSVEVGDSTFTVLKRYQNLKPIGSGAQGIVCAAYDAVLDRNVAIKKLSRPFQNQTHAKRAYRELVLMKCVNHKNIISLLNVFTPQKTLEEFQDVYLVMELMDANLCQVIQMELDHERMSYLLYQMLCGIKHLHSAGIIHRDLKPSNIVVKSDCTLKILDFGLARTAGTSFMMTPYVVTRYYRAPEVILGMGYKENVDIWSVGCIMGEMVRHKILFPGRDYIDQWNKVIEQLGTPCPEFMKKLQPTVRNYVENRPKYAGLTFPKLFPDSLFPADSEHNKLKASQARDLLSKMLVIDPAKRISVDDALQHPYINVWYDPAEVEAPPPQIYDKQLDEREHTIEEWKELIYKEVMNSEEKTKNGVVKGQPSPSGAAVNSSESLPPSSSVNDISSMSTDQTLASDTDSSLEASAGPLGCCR

Broadly, the inhibition is the relative decrease from the control value, in per cent. For `Cl.Cl.N[C@H]1CC[C@H](Nc2nc(N3CCc4cc([N+](=O)[O-])ccc43)c3nc[nH]c3n2)CC1` [Example 30, Trans-N-[6-(2,3-dihydro-5-nitro-1H-indol-1-yl)-9H-purin-2-yl]-1,4-cyclohexanediamine dihydrochloride], the inhibition at 20 µM in experiment [1] was 99%. For the same compound, the IC50 on GSK3beta turned out to be 1.5 µM; against CaCiv1, 100 nM. Moreover, the “percentage inhibition at 20 μM” value with CAN Kinase II is reported as 98%.

As to `Cl.N[C@H]1CC[C@H](Nc2nc(-n3cnc4cc(Cl)c(Cl)cc43)c3nc[nH]c3n2)CC1` [Example 8, Trans-N-[6-(5,6-dichloro-1H-benzimidazol-1-yl)-9H-purin-2-yl]-1,4-cyclohexanediamine hydrochloride], the IC50 was 0.84 µM at JNK3 kinase and 1300 nM at CaCiv1. Besides, the inhibition at 20 µM at ZAP kinase turned out to be 98%.
